Assays:
Assay in all cases: KINOMEscan competition binding
Details in all cases: compound 10.0 µM
[1] = target: FYN (human) (UniProt P06241)
[2] = target: SIK3 (human) (UniProt Q9Y2K2)
[3] = target: PLK1 (human) (UniProt P53350)
[4] = target: BTK (human) (UniProt Q06187)
[5] = target: STK11 (human) (UniProt Q15831)
[6] = target: EPHA7 (human) (UniProt Q15375)
[7] = target: MYO3B (human) (UniProt Q8WXR4)
[8] = target: FRK (human) (UniProt P42685)
[9] = target: NEK6 (human) (UniProt Q9HC98)
[10] = target: PDGFRB (human) (UniProt P09619)
[11] = target: TNNI3K (human) (UniProt Q59H18)
[12] = target: TNK2 (human) (UniProt Q07912)
[13] = target: RIOK3 (human) (UniProt O14730)
[14] = target: STK16 (human) (UniProt O75716)
[15] = target: SGK110 (human) (UniProt P0C264)
[16] = target: MAPK4 (human) (UniProt P31152)
[17] = target: PRKX (human) (UniProt P51817)
[18] = target: AAK1 (human) (UniProt Q2M2I8)
[19] = target: MAPK7 (human) (UniProt Q13164)
[20] = target: NIM1 (human) (UniProt Q8IY84)
[21] = tested on: ABL1 (human), P00519 [Y253F]
[22] = target: MYLK3 (human) (UniProt Q32MK0)
[23] = target: ROS1 (human) (UniProt P08922)
[24] = target: PIK3CA (human) (UniProt P42336)
[25] = target: MAP3K7 (human) (UniProt O43318)
[26] = target: FES (human) (UniProt P07332)
[27] = target: PTK2 (human) (UniProt Q05397)
[28] = target: AKT3 (human) (UniProt Q9Y243)
[29] = target: ABL2 (human) (UniProt P42684)
[30] = target: PIP5K1A (human) (UniProt Q99755)
[31] = target: MAP3K4 (human) (UniProt Q9Y6R4)
[32] = target: NEK5 (human) (UniProt Q6P3R8)
[33] = target: STK32C (human) (UniProt Q86UX6)
[34] = target: EPHA2 (human) (UniProt P29317)
[35] = target: PKMYT1 (human) (UniProt Q99640)
[36] = target: STK17A (human) (UniProt Q9UEE5)
[37] = target: PRKG2 (human) (UniProt Q13237)
[38] = target: CAMK2B (human) (UniProt Q13554)
[39] = target: TYRO3 (human) (UniProt Q06418)

Chain of ABL2 (human) (P42684 whole entry, looked up): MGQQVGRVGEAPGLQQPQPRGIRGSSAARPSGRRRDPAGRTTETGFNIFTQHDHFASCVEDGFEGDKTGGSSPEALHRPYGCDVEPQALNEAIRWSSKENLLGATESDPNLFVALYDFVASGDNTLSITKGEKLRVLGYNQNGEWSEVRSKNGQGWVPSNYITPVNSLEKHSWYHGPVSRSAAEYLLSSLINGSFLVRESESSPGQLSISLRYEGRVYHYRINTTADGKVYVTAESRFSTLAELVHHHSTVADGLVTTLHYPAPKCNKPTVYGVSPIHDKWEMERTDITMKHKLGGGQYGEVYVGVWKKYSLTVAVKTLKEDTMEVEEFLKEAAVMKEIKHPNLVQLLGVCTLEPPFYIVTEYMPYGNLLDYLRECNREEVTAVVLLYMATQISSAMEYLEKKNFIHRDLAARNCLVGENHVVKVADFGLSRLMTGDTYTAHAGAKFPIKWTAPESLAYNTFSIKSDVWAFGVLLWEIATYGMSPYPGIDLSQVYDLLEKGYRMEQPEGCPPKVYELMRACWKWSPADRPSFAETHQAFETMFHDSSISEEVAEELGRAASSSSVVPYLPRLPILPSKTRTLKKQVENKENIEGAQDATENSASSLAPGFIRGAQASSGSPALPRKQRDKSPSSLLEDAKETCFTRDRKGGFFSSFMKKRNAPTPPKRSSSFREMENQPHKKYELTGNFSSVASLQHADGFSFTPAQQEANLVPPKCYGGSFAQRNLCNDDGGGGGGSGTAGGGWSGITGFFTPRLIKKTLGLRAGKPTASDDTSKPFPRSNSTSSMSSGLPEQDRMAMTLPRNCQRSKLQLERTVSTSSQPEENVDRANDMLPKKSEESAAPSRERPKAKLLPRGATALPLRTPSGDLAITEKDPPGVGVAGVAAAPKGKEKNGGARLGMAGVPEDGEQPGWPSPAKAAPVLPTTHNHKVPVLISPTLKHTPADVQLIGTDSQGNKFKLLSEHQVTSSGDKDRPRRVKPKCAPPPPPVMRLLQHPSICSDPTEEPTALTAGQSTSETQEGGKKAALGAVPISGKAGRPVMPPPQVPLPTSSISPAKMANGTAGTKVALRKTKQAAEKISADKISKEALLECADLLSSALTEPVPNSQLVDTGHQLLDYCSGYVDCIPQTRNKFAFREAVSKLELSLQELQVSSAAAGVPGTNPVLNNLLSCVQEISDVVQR
Chain of MAP3K4 (human) (Q9Y6R4 whole entry, looked up): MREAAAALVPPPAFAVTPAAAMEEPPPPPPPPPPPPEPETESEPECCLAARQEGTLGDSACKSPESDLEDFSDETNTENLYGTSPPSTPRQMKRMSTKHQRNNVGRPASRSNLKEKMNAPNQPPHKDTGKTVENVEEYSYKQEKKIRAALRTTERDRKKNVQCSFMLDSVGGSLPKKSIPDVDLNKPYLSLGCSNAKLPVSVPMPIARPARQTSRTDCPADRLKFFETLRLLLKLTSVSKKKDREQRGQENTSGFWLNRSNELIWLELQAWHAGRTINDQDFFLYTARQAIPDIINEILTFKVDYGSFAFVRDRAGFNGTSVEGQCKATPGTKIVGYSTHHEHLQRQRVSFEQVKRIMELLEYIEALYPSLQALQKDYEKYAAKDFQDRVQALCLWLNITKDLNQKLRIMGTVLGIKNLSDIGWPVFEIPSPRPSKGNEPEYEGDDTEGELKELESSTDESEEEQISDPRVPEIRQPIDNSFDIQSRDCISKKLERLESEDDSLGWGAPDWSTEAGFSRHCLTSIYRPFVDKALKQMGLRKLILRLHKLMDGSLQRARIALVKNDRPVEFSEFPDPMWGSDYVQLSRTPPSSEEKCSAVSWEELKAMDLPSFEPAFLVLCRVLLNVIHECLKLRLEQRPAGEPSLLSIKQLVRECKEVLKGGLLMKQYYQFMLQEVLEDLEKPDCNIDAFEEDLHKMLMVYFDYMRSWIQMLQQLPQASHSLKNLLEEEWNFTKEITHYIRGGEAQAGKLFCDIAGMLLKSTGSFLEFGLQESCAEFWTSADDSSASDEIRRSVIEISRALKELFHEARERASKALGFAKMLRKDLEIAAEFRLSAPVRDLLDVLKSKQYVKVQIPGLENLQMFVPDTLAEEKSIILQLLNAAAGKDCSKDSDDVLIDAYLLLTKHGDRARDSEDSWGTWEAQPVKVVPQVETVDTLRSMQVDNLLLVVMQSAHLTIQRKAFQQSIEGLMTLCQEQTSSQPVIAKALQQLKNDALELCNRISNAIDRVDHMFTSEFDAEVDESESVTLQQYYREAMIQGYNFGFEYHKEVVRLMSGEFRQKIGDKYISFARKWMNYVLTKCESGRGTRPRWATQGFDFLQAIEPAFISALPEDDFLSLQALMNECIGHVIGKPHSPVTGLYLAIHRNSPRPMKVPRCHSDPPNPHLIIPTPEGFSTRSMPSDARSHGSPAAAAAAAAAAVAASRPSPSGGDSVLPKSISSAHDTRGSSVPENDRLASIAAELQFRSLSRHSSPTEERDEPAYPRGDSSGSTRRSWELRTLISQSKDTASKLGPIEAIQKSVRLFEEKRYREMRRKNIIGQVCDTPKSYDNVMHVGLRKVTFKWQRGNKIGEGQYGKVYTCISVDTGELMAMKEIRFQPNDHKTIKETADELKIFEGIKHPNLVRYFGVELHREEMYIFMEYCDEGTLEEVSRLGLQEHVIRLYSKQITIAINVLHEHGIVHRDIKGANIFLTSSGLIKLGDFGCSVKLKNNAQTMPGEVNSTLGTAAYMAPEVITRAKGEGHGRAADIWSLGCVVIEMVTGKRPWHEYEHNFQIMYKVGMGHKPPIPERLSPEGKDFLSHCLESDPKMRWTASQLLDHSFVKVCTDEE
Chain of PIK3CA (human) (P42336 whole entry, looked up): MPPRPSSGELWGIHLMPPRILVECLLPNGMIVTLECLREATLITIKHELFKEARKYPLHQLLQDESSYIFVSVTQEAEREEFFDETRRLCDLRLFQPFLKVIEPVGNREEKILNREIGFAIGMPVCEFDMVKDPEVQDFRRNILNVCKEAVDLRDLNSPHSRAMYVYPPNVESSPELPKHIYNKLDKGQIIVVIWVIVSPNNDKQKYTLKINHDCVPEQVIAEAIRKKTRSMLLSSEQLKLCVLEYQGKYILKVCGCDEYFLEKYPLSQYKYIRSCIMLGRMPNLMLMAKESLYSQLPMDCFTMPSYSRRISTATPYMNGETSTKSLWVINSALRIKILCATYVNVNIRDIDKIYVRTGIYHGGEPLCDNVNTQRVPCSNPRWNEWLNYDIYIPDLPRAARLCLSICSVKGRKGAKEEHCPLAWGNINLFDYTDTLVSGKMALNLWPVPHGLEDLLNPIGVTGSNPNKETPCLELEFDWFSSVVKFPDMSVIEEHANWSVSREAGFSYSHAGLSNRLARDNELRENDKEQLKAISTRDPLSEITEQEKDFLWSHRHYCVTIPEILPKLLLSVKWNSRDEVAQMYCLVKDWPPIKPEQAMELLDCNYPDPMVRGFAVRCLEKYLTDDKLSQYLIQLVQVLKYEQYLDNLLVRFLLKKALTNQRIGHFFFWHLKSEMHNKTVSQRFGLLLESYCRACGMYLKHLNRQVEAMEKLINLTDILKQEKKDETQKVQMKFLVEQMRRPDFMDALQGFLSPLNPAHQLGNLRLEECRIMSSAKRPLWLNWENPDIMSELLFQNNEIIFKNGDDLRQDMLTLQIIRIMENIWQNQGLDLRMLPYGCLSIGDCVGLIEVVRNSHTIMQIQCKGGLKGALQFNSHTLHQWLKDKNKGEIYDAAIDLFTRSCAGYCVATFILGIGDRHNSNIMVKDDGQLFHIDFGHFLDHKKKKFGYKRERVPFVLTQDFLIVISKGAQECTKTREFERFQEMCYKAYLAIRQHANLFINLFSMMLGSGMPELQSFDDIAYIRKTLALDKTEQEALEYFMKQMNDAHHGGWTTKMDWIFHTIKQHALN
Chain of PTK2 (human) (Q05397 whole entry, looked up): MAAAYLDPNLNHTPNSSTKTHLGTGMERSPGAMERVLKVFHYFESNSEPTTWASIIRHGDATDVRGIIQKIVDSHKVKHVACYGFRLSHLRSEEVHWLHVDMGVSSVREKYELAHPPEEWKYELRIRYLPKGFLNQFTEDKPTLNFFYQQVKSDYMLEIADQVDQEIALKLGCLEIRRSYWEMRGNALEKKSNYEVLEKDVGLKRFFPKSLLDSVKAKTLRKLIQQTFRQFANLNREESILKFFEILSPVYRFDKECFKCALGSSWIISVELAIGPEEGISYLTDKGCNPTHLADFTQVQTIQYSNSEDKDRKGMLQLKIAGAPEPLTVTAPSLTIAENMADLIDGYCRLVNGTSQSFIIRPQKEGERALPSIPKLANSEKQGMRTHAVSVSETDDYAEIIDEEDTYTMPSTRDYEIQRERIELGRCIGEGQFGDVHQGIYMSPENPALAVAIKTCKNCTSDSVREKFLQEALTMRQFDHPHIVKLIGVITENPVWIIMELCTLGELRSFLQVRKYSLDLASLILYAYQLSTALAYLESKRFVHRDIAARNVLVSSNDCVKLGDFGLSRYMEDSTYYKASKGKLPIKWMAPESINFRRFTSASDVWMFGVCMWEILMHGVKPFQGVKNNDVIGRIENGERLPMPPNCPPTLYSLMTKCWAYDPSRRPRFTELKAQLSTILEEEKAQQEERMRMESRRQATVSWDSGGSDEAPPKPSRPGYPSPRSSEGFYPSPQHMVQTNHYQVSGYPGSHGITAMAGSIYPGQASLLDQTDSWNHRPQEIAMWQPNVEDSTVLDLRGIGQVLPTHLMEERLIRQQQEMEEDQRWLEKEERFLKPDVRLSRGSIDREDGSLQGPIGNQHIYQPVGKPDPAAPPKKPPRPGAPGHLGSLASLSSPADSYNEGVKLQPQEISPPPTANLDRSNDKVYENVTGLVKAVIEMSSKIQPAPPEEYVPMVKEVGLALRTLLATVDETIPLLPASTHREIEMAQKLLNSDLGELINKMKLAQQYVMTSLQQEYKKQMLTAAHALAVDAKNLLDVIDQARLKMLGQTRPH

Structure (SMILES)	kinase still bound, per cent of control [1] [%]	kinase still bound, per cent of control [3] [%]	kinase still bound, per cent of control [4] [%]	kinase still bound, per cent of control [5] [%]	kinase still bound, per cent of control [6] [%]	kinase still bound, per cent of control [7] [%]	kinase still bound, per cent of control [8] [%]	kinase still bound, per cent of control [9] [%]	kinase still bound, per cent of control [10] [%]	kinase still bound, per cent of control [11] [%]	kinase still bound, per cent of control [12] [%]	kinase still bound, per cent of control [13] [%]	kinase still bound, per cent of control [14] [%]	kinase still bound, per cent of control [15] [%]	kinase still bound, per cent of control [16] [%]	kinase still bound, per cent of control [17] [%]	kinase still bound, per cent of control [18] [%]	kinase still bound, per cent of control [19] [%]	kinase still bound, per cent of control [21] [%]	kinase still bound, per cent of control [22] [%]	further results
CS(=O)(=O)N1CCN(Cc2cc3nc(-c4cccc5[nH]ncc45)nc(N4CCOCC4)c3s2)CC1	100	100	100	100	100	100	100	100	100	100	100	100	100	100	100	100	100	100	100	100	kinase still bound, per cent of control [2]: 100%; kinase still bound, per cent of control [20]: 100%; kinase still bound, per cent of control [23]: 100%; kinase still bound, per cent of control [24]: 0.15%; kinase still bound, per cent of control [25]: 100%; kinase still bound, per cent of control [26]: 100%; kinase still bound, per cent of control [27]: 100%; kinase still bound, per cent of control [28]: 100%; kinase still bound, per cent of control [29]: 100%; kinase still bound, per cent of control [30]: 100%; kinase still bound, per cent of control [31]: 100%; kinase still bound, per cent of control [32]: 100%; kinase still bound, per cent of control [33]: 100%; kinase still bound, per cent of control [34]: 100%; kinase still bound, per cent of control [35]: 100%; kinase still bound, per cent of control [36]: 100%; kinase still bound, per cent of control [37]: 100%; kinase still bound, per cent of control [38]: 100%; kinase still bound, per cent of control [39]: 100%
COc1cc(N2CCN(C)CC2)ccc1Nc1ncc2c(n1)N(C)c1ccccc1C(=O)N2C	100	9.8	100	100	100	100	2.6	100	100	100	3.2	100	100	30	100	100	100	0	100	100	kinase still bound, per cent of control [2]: 100%; kinase still bound, per cent of control [20]: 100%; kinase still bound, per cent of control [23]: 7.6%; kinase still bound, per cent of control [24]: 100%; kinase still bound, per cent of control [25]: 100%; kinase still bound, per cent of control [26]: 100%; kinase still bound, per cent of control [27]: 16%; kinase still bound, per cent of control [28]: 100%; kinase still bound, per cent of control [29]: 100%; kinase still bound, per cent of control [30]: 100%; kinase still bound, per cent of control [31]: 100%; kinase still bound, per cent of control [32]: 100%; kinase still bound, per cent of control [33]: 100%; kinase still bound, per cent of control [34]: 100%; kinase still bound, per cent of control [35]: 100%; kinase still bound, per cent of control [36]: 100%; kinase still bound, per cent of control [37]: 100%; kinase still bound, per cent of control [38]: 100%; kinase still bound, per cent of control [39]: 100%
CNC(=O)c1ccc(Nc2cc(Nc3ccccc3S(=O)(=O)C(C)C)c3cc[nH]c3n2)nc1	8.1	19	0.65	18	1.7	100	33	100	8.4	100	1	2.9	2.8	7.4	100	100	11	100	12	100	kinase still bound, per cent of control [23]: 0.85%; kinase still bound, per cent of control [24]: 100%; kinase still bound, per cent of control [25]: 0.35%; kinase still bound, per cent of control [26]: 12%; kinase still bound, per cent of control [27]: 0%; kinase still bound, per cent of control [28]: 100%; kinase still bound, per cent of control [29]: 9.4%; kinase still bound, per cent of control [30]: 4.6%; kinase still bound, per cent of control [31]: 100%; kinase still bound, per cent of control [32]: 100%; kinase still bound, per cent of control [33]: 100%; kinase still bound, per cent of control [34]: 100%; kinase still bound, per cent of control [35]: 100%; kinase still bound, per cent of control [36]: 100%; kinase still bound, per cent of control [37]: 25%; kinase still bound, per cent of control [38]: 100%; kinase still bound, per cent of control [39]: 29%
